The results in this text go back to US20090118366A1, “ORGANIC COMPOUNDS” (Nabriva Therapeutics Forschungs GmbH, priority 2007, published 2009).

The test system of the series is cryopreserved primary human hepatocytes. The experiment in a line: Metabolic stability in cryopreserved primary human hepatocytes. In kind it is in vitro ADME. To be noted: 4 h incubation with human hepatocytes, compound concentration 5 μg/mL, 37° C., LC/MS. The procedure: The metabolic stability for compounds of the present invention was determined by using cryopreserved primary human hepatocytes. 1×10^6 cells/mL were incubated in the absence and the presence of 5 and 25 μg/mL of the test compounds at 37° C., 5% CO2 for 4 hours, To evaluate the in vitro degradation under assay conditions, a sample of each test compound was incubated also in the absence of hepatocytes. The incubation was stopped by freezing the reaction mixture. After ultrafiltration and washing of the filter with acetonitrile, the sample solution was analyzed for parent compound disappearance or metabolite appearance using LC/MS (ion trap). The metabolic stability value corresponds to the detected parent compound in % after incubation.

Regarding “14-O-{[(1R, 3S)-3-Amino-cyclohexylsulfanyl]-acetyl}-mutilin hydrochloride and the (1S, S3R) diastereomer hydrochloride thereof”, the “parent compounds found (metabolic stability value)” value stood at 24%.
In the case of “14-O-{[(1R, 2R, 5S)-5-Amino-2-hydroxy-cyclohexylsulfanyl]-acetyl}-mutilin hydrochloride+(1s, 2S, 5R) diastereomer hydrochloride [Example 2]”, the “parent compounds found (metabolic stability value)” value came out at 66%.
